Results as given in patent US20140378408A1, “NUCLEOSIDE 5'-PHOSPHOROTHIOATE ANALOGUES AND USES THEREOF” (BAR-ILAN UNIVERSITY, an Israeli University, priority 2012, published 2014).
Where two headings read alike, the source gives them in different places.

Key:
human P2Y11-R = target: T1, human P2Y11-R (Homo sapiens, UniProt Q96G91); experiment: [Ca^2+]i response of 1321N1 astrocytoma cells expressing P2Y11-R GFP; type: cell-based
T1 construct: expressed in transfected cells; host or cells: 1321N1 astrocytoma cells
T1 sequence (Q96G91 1-374): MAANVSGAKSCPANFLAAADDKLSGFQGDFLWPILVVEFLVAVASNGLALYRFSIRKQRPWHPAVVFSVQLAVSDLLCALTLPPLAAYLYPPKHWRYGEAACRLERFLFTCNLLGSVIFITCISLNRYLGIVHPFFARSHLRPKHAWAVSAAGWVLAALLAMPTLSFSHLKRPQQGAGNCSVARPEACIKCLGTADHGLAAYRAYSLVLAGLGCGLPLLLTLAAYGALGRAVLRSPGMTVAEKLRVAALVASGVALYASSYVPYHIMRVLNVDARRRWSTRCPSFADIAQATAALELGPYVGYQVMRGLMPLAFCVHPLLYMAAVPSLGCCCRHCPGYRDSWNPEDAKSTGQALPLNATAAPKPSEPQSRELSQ

human NTPDase2 = target: T2, human NTPDase2 (Homo sapiens, UniProt Q9Y5L3); experiment: Inhibition of NTPDase2 activity; type: biochemical; conditions: for effect on human NTPDase2 activity: Table 5, ATP and analogue 100 μM, 100% activity = ATP alone; for inhibition of the hydrolysis of ATP by NTPDase2: analogue and ATP 100 μM
T2 construct: made in house; host or cells: COS-7 cells (transfected; protein extract)
T2 sequence (Q9Y5L3 1-495): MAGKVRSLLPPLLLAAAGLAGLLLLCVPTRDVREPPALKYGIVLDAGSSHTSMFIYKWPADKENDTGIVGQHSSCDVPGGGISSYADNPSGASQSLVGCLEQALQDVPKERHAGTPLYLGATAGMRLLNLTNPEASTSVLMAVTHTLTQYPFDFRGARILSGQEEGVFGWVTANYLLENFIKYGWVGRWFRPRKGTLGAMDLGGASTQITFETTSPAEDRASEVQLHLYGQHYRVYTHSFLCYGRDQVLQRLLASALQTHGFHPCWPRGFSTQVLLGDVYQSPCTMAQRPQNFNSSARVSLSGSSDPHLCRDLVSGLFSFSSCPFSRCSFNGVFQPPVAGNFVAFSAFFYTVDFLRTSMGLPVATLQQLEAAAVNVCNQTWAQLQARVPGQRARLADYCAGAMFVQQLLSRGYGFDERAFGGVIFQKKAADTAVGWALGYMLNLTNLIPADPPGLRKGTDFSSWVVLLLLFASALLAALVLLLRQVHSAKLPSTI

human NTPDase8 = target: T3, human NTPDase8 (Homo sapiens, UniProt Q5MY95); experiment: Inhibition of NTPDase8 activity; type: biochemical; conditions: for effect on human NTPDase8 activity: Table 5, ATP and analogue 100 μM, 100% activity = ATP alone; for inhibition of the hydrolysis of ATP by NTPDase8: analogue and ATP 100 μM
T3 construct: made in house; host or cells: COS-7 cells (transfected; protein extract)
T3 sequence (Q5MY95 1-495): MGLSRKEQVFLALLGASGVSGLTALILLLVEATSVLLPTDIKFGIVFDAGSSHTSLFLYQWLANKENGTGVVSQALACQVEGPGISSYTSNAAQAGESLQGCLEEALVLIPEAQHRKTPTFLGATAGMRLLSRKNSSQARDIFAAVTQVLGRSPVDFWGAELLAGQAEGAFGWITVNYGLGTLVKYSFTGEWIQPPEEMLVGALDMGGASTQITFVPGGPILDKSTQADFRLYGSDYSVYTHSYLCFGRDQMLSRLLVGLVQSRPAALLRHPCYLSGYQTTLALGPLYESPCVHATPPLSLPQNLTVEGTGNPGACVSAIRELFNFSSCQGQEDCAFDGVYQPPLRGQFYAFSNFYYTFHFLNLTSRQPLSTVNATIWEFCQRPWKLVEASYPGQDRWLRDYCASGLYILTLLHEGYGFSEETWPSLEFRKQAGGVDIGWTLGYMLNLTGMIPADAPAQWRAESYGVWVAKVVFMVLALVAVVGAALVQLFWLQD

human NTPDase3 [1] = target: T4, human NTPDase3 (Homo sapiens, UniProt O75355); experiment: Inhibition of NTPDase3 activity; conditions: for effect on human NTPDase3 activity: Table 5, ATP and analogue 100 μM, 100% activity = ATP alone; for inhibition of the hydrolysis of ATP by NTPDase3: analogue and ATP 100 μM
T4 sequence (O75355 1-529): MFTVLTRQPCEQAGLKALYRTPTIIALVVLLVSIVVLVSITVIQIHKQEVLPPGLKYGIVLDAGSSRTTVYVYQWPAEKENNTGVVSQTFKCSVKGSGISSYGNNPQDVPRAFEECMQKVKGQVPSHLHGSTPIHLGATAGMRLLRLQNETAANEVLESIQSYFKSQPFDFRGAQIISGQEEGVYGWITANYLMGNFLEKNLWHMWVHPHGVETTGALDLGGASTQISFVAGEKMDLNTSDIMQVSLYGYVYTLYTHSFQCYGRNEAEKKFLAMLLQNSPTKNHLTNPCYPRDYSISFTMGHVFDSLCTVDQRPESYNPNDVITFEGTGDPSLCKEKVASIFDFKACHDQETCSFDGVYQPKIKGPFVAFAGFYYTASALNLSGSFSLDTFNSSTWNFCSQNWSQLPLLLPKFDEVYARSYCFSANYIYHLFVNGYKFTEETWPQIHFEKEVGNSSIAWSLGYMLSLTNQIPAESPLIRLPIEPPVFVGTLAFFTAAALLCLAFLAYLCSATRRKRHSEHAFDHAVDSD

human NTPDase1 = target: T5, human NTPDase1 (Homo sapiens, UniProt P49961); experiment: Hydrolysis by human NTPDase1; type: in vitro ADME; parameters: made in house; host or cells: COS-7 cells (transfected; protein extract); conditions: for Hydrolysis by NTPDase1: 100 μM, 1 h, activity with 100 μM ATP = 100%
T5 sequence (P49961 1-510): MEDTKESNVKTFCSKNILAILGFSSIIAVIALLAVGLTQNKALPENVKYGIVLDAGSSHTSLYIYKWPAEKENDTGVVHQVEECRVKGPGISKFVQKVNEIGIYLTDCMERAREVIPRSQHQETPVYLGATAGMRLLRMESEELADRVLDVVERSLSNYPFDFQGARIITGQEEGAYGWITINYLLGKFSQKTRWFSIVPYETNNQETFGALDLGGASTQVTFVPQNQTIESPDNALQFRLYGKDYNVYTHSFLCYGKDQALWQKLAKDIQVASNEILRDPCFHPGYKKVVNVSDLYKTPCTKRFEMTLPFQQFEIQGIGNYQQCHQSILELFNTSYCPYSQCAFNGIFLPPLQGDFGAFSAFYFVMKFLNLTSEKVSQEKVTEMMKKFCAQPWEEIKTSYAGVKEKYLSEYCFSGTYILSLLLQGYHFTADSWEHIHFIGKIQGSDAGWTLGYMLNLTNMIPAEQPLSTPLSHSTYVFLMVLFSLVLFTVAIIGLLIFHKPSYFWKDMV

human NTPDase3 [2] = target: T4, human NTPDase3; experiment: Hydrolysis by human NTPDase3; type: in vitro ADME; parameters: made in house; host or cells: COS-7 cells (transfected; protein extract); conditions: for Hydrolysis by NTPDase3: 100 μM, 1 h, activity with 100 μM ATP = 100%

Nc1ncnc2c1ncn2[C@@H]1O[C@H](COP(O)(=S)OP(=O)(O)CP(=O)(O)O)[C@@H](O)[C@H]1O (single isomer, unassigned; isomer a) [APPCP-α-S (isomer A), adenosine 5′-[Pα-thio]-β,γ-methylenetriphosphate]
agonism at the P2Y11-receptor (human P2Y11-R): not an agonist
effect on human NTPDase2 activity (human NTPDase2; listed as APPCP-α-S A): 16.3 ± 0.6%
inhibition of the hydrolysis of ATP by NTPDase2 (human NTPDase2): did not interfere
effect on human NTPDase8 activity (human NTPDase8; listed as APPCP-α-S A): 7.0 ± 0.3%
inhibition of the hydrolysis of ATP by NTPDase8 (human NTPDase8): did not interfere
effect on human NTPDase3 activity (human NTPDase3 [1]; listed as APPCP-α-S A): 40.2 ± 2.0%
inhibition of the hydrolysis of ATP by NTPDase3 (human NTPDase3 [1]): did not interfere
Hydrolysis by NTPDase1 (human NTPDase1; listed as APPCP-α-S A): 4.4%
Hydrolysis by NTPDase3 (human NTPDase3 [2]; listed as APPCP-α-S A): 4.2%

Nc1ncnc2c1ncn2[C@@H]1O[C@H](COP(O)(=S)OP(=O)(O)C(Cl)(Cl)P(=O)(O)O)[C@@H](O)[C@H]1O (single isomer, unassigned) [APPCCl2P-α-S, adenosine 5′-[Pα-thio]-β,γ-(dichloromethylene)triphosphate]
EC50 (human P2Y11-R): > 10 µM

Nc1ncnc2c1ncn2[C@@H]1O[C@H](COP(=O)(O)OP(O)(O)=S)[C@@H](O)[C@H]1O [ADP-β-S, adenosine 5′-[β-thio]diphosphate, reference compound]
inhibition of the hydrolysis of ATP by NTPDase2 (human NTPDase2): less than 50%
inhibition of the hydrolysis of ATP by NTPDase8 (human NTPDase8): less than 50%
inhibition of the hydrolysis of ATP by NTPDase3 (human NTPDase3 [1]): less than 50%
Relative hydrolysis by NTPDase3 (human NTPDase3 [2]): 2 ± 0.1 % ± SD of ADP or AP2A hydrolysis

adenosine-5′-tetrathiobisphosphonate
inhibition of the hydrolysis of ATP by NTPDase2 (human NTPDase2): 42%
inhibition of the hydrolysis of ATP by NTPDase8 (human NTPDase8): 49%
Relative hydrolysis by NTPDase1 (human NTPDase1): 1 ± 0.2 % ± SD of ADP or AP2A hydrolysis

Nc1ncnc2c1ncn2[C@@H]1O[C@H](COP(O)(=S)OP(=O)(O)CP(=O)(O)O)[C@@H](O)[C@H]1O (single isomer, unassigned; isomer b) [APPCP-α-S (isomer B), adenosine 5′-[Pα-thio]-β,γ-methylenetriphosphate]
times more potent than ATP at the P2Y11 receptor (human P2Y11-R): 7 fold
effect on human NTPDase2 activity (human NTPDase2; listed as APPCP-α-S B): 9.9 ± 0.4%
inhibition of the hydrolysis of ATP by NTPDase2 (human NTPDase2): did not interfere
effect on human NTPDase8 activity (human NTPDase8; listed as APPCP-α-S B): 0.5 ± 0.01%
inhibition of the hydrolysis of ATP by NTPDase8 (human NTPDase8): did not interfere
effect on human NTPDase3 activity (human NTPDase3 [1]; listed as APPCP-α-S B): 18.7 ± 0.8%
inhibition of the hydrolysis of ATP by NTPDase3 (human NTPDase3 [1]): did not interfere
Hydrolysis by NTPDase1 (human NTPDase1; listed as APPCP-α-S B): 5.4 ± 0.2%
Hydrolysis by NTPDase3 (human NTPDase3 [2]; listed as APPCP-α-S B): 4.8 ± 0.2%

Nc1ncnc2c1ncn2[C@@H]1O[C@H](COP(O)(=S)OP(=O)(O)C(Cl)(Cl)P(=O)(O)O)[C@@H](O)[C@H]1O (single isomer, unassigned; isomer b) [APPCCl2P-α-S (isomer B), adenosine 5′-[Pα-thio]-β,γ-(dichloromethylene)triphosphate]
times more potent than ATP at the P2Y11 receptor (human P2Y11-R): 2 fold
effect on human NTPDase2 activity (human NTPDase2; listed as APPCCl2P-α-S B): 12.7 ± 0.5%
inhibition of the hydrolysis of ATP by NTPDase2 (human NTPDase2): did not interfere
effect on human NTPDase8 activity (human NTPDase8; listed as APPCCl2P-α-S B): 1.5 ± 0.06%
inhibition of the hydrolysis of ATP by NTPDase8 (human NTPDase8): did not interfere
effect on human NTPDase3 activity (human NTPDase3 [1]; listed as APPCCl2P-α-S B): 24.0 ± 1.2%
inhibition of the hydrolysis of ATP by NTPDase3 (human NTPDase3 [1]): did not interfere
Hydrolysis by NTPDase1 (human NTPDase1; listed as APPCCl2P-α-S B): 5.4%
Hydrolysis by NTPDase3 (human NTPDase3 [2]; listed as APPCCl2P-α-S B): 5.4%

Nc1ncnc2c1ncn2[C@@H]1O[C@H](COP(=O)(O)CP(=O)(O)OP(O)(O)=S)[C@@H](O)[C@H]1O [APCPP-γ-S, adenosine 5′-[Pγ-thio]-α,β-methylenetriphosphate]
EC50 (human P2Y11-R): > 10 µM
times more potent than ATP at the P2Y11 receptor (human P2Y11-R): 6.7 fold
EC50 (human P2Y11-R; agonist, read-out: EC50 at the P2Y11 receptor): 1 µM
effect on human NTPDase2 activity (human NTPDase2): 15.4 ± 0.7%
effect on human NTPDase8 activity (human NTPDase8): 0.50 ± 0.02%
effect on human NTPDase3 activity (human NTPDase3 [1]): 26.8 ± 1.1%
Hydrolysis by NTPDase1 (human NTPDase1): 5.3 ± 0.2%
Hydrolysis by NTPDase3 (human NTPDase3 [2]): 4.8 ± 0.2%

di-adenosine-5′,5″-tetrathiobisphosphonate
inhibition of the hydrolysis of ATP by NTPDase2 (human NTPDase2): 5-20%
inhibition of the hydrolysis of ATP by NTPDase8 (human NTPDase8): 5-20%
inhibition of the hydrolysis of ATP by NTPDase3 (human NTPDase3 [1]): 5-20%
Relative hydrolysis by NTPDase3 (human NTPDase3 [2]): 2.0 ± 0.1 % ± SD of ADP or AP2A hydrolysis

Nc1ncnc2c1ncn2[C@@H]1O[C@H](COP(O)(=S)OP(=O)(O)C(Cl)(Cl)P(=O)(O)O)[C@@H](O)[C@H]1O (single isomer, unassigned; isomer a) [APPCCl2P-α-S (isomer A), adenosine 5′-[Pα-thio]-β,γ-(dichloromethylene)triphosphate]
agonism at the P2Y11-receptor (human P2Y11-R): not an agonist
effect on human NTPDase2 activity (human NTPDase2; listed as APPCCl2P-α-S A): 11.2 ± 0.5%
inhibition of the hydrolysis of ATP by NTPDase2 (human NTPDase2): did not interfere
effect on human NTPDase8 activity (human NTPDase8; listed as APPCCl2P-α-S A): 4.9 ± 0.2%
inhibition of the hydrolysis of ATP by NTPDase8 (human NTPDase8): did not interfere
effect on human NTPDase3 activity (human NTPDase3 [1]; listed as APPCCl2P-α-S A): 21.8 ± 1.0%
inhibition of the hydrolysis of ATP by NTPDase3 (human NTPDase3 [1]): did not interfere
Hydrolysis by NTPDase1 (human NTPDase1; listed as APPCCl2P-α-S A): 5.3 ± 0.2%
Hydrolysis by NTPDase3 (human NTPDase3 [2]; listed as APPCCl2P-α-S A): 5.2 ± 0.2%
